{"source": "patent US10590143B2", "about": "“Herbicidally active (alkynyl-phenyl)-substituted cyclic dione compounds and derivatives thereof” (Syngenta Limited, priority 2013, dated 2020)", "type_in_all_cases": "in vivo", "key": {"[1]": {"system": "Brassica napus (BRSNN, rape)", "test": "Biological Example 2 glasshouse assay for herbicidal activity", "conditions": "Brassica napus, 360 h, post-emergence, 14 or 15 DAA, 0.2% v/v X-77, read-out: percentage phytotoxicity BRSNN", "how_it_was_run": "(§1)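 Glasshouse pots sprayed pre-emergence (1 day after sowing) or post-emergence (~12 days) with active ingredient formulated as IF50 in water plus 0.2% v/v X-77; warm species 24/18 °C, cool species 20/16 °C, 16 h light, 65% humidity. Visual % phytotoxicity scored 14–15 DAA (post) or 20 DAA (pre).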"}, "[2]": {"system": "SORVU (Sorghum bicolor (L.) Moench ssp. Bicolor, or Sorghum vulgare Pers.)", "test": "Biological Example 2 glasshouse assay for herbicidal activity", "conditions": "post-emergence, 360 h, 14 or 15 DAA, 0.2% v/v X-77, read-out: percentage phytotoxicity SORVU", "how_it_was_run": "as §1"}, "[3]": {"system": "Abutilon theophrasti (ABUTH)", "test": "Biological Example 1 glasshouse assay for herbicidal activity", "conditions": "312 h, 13 days after application, read-out: percentage phytotoxicity ABUTH", "how_it_was_run": "(§2)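 Sow seeds in pots of standard sandy soil; grow in glasshouse (24/16 °C, 14 h light, 65% humidity). Spray herbicide in acetone/water with 0.5% Tween 20 at day 1 or day 8. Water twice daily and score damage visually at 13 days.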"}, "[4]": {"system": "Zea mays (ZEAMX, corn, maize, e.g. volunteer corn)", "test": "Biological Example 1 glasshouse assay for herbicidal activity", "conditions": "Zea mays, 312 h, 13 days after application, read-out: percentage phytotoxicity ZEAMX", "how_it_was_run": "as §2"}, "[5]": {"system": "Amaranthus retroflexus (AMARE)", "test": "Biological Example 1 glasshouse assay for herbicidal activity", "conditions": "Amaranthus retroflexus, 312 h, 13 days after application, read-out: percentage phytotoxicity AMARE", "how_it_was_run": "as §2"}, "[6]": {"system": "Echinochloa crus-galli (ECHCG)", "test": "Biological Example 1 glasshouse assay for herbicidal activity", "conditions": "Echinochloa crus-galli, 312 h, 13 days after application, read-out: percentage phytotoxicity ECHCG", "how_it_was_run": "as §2"}, "[7]": {"system": "Alopecurus myosuroides (ALOMY)", "test": "Biological Example 1 glasshouse assay for herbicidal activity", "conditions": "312 h, 13 days after application, read-out: percentage phytotoxicity ALOMY", "how_it_was_run": "as §2"}, "[8]": {"system": "Setaria faberi (SETFA)", "test": "Biological Example 1 glasshouse assay for herbicidal activity", "conditions": "312 h, 13 days after application, read-out: percentage phytotoxicity SETFA", "how_it_was_run": "as §2"}}, "note": "Like-named read-outs stand apart in the source and are kept apart here.", "data": [{"smiles": "CC#Cc1cc(F)c(C2=C(OC(=O)SCC)C3CCC(C3)C2=O)c(OC)c1", "note": "(centres unmarked) [Compound P4]", "values": [{"measurement": "plant injury at 30 g/ha", "setting": "[1]", "value": 50, "unit": "%"}, {"measurement": "plant injury at 250 g/ha", "setting": "[1]", "value": 80, "unit": "%"}, {"measurement": "pest or weed control at 30 g/ha", "setting": "[2]", "value": 100, "unit": "%"}, {"measurement": "pest or weed control at 250 g/ha", "setting": "[2]", "value": 100, "unit": "%"}, {"measurement": "pest or weed control at 8 g/ha", "setting": "[3]; post-emergence, post-emergence", "value": 10, "unit": "%"}, {"measurement": "pest or weed control at 30 g/ha", "setting": "[3]; post-emergence, post-emergence", "value": 20, "unit": "%"}, {"measurement": "pest or weed control at 250 g/ha", "setting": "[3]; post-emergence, post-emergence", "value": 80, "unit": "%"}, {"measurement": "pest or weed control at 30 g/ha", "setting": "[3]; pre-emergence, pre-emergence", "value": 0, "unit": "%"}, {"measurement": "pest or weed control at 250 g/ha", "setting": "[3]; pre-emergence, pre-emergence", "value": 40, "unit": "%"}, {"measurement": "pest or weed control at 8 g/ha", "setting": "[4]; post-emergence, post-emergence", "value": 100, "unit": "%"}, {"measurement": "pest or weed control at 30 g/ha", "setting": "[4]; post-emergence, post-emergence", "value": 100, "unit": "%"}, {"measurement": "pest or weed control at 250 g/ha", "setting": "[4]; post-emergence, post-emergence", "value": 100, "unit": "%"}, {"measurement": "pest or weed control at 30 g/ha", "setting": "[4]; pre-emergence, pre-emergence", "value": 90, "unit": "%"}, {"measurement": "pest or weed control at 250 g/ha", "setting": "[4]; pre-emergence, pre-emergence", "value": 100, "unit": "%"}, {"measurement": "pest or weed control at 8 g/ha", "setting": "[5]; post-emergence, post-emergence", "value": 20, "unit": "%"}, {"measurement": "pest or weed control at 30 g/ha", "setting": "[5]; post-emergence, post-emergence", "value": 30, "unit": "%"}, {"measurement": "pest or weed control at 250 g/ha", "setting": "[5]; post-emergence, post-emergence", "value": 20, "unit": "%"}, {"measurement": "pest or weed control at 30 g/ha", "setting": "[5]; pre-emergence, pre-emergence", "value": 30, "unit": "%"}, {"measurement": "pest or weed control at 250 g/ha", "setting": "[5]; pre-emergence, pre-emergence", "value": 60, "unit": "%"}, {"measurement": "pest or weed control at 8 g/ha", "setting": "[6]; post-emergence, post-emergence", "value": 90, "unit": "%"}, {"measurement": "pest or weed control at 30 g/ha", "setting": "[6]; post-emergence, post-emergence", "value": 100, "unit": "%"}, {"measurement": "pest or weed control at 250 g/ha", "setting": "[6]; post-emergence, post-emergence", "value": 100, "unit": "%"}, {"measurement": "pest or weed control at 30 g/ha", "setting": "[6]; pre-emergence, pre-emergence", "value": 100, "unit": "%"}, {"measurement": "pest or weed control at 250 g/ha", "setting": "[6]; pre-emergence, pre-emergence", "value": 100, "unit": "%"}, {"measurement": "pest or weed control at 8 g/ha", "setting": "[7]; post-emergence", "value": 80, "unit": "%"}, {"measurement": "pest or weed control at 30 g/ha", "setting": "[7]; post-emergence", "value": 90, "unit": "%"}, {"measurement": "pest or weed control at 250 g/ha", "setting": "[7]; post-emergence", "value": 90, "unit": "%"}, {"measurement": "pest or weed control at 30 g/ha", "setting": "[7]; pre-emergence", "value": 80, "unit": "%"}, {"measurement": "pest or weed control at 250 g/ha", "setting": "[7]; pre-emergence", "value": 100, "unit": "%"}, {"measurement": "pest or weed control at 8 g/ha", "setting": "[8]; post-emergence, post-emergence", "value": 70, "unit": "%"}, {"measurement": "pest or weed control at 30 g/ha", "setting": "[8]; post-emergence, post-emergence", "value": 80, "unit": "%"}, {"measurement": "pest or weed control at 250 g/ha", "setting": "[8]; post-emergence, post-emergence", "value": 100, "unit": "%"}, {"measurement": "pest or weed control at 30 g/ha", "setting": "[8]; pre-emergence, pre-emergence", "value": 60, "unit": "%"}, {"measurement": "pest or weed control at 250 g/ha", "setting": "[8]; pre-emergence, pre-emergence", "value": 90, "unit": "%"}]}, {"smiles": "CC#Cc1cc(F)c(C2=C(OC(=O)c3ccccc3)C3CCC(C3)C2=O)c(OC)c1", "note": "(centres unmarked) [Compound P5, [3-(2-fluoro-6-methoxy-4-prop-1-ynyl-phenyl)-4-oxo-2-bicyclo[3.2.1]oct-2-enyl]benzoate]", "values": [{"measurement": "plant injury at 30 g/ha", "setting": "[1]", "value": 50, "unit": "%"}, {"measurement": "plant injury at 250 g/ha", "setting": "[1]", "value": 80, "unit": "%"}, {"measurement": "pest or weed control at 30 g/ha", "setting": "[2]", "value": 80, "unit": "%"}, {"measurement": "pest or weed control at 250 g/ha", "setting": "[2]", "value": 100, "unit": "%"}, {"measurement": "pest or weed control at 8 g/ha", "setting": "[3]; post-emergence, post-emergence", "value": 0, "unit": "%"}, {"measurement": "pest or weed control at 30 g/ha", "setting": "[3]; post-emergence, post-emergence", "value": 10, "unit": "%"}, {"measurement": "pest or weed control at 250 g/ha", "setting": "[3]; post-emergence, post-emergence", "value": 80, "unit": "%"}, {"measurement": "pest or weed control at 30 g/ha", "setting": "[3]; pre-emergence, pre-emergence", "value": 0, "unit": "%"}, {"measurement": "pest or weed control at 250 g/ha", "setting": "[3]; pre-emergence, pre-emergence", "value": 60, "unit": "%"}, {"measurement": "pest or weed control at 8 g/ha", "setting": "[4]; post-emergence, post-emergence", "value": 100, "unit": "%"}, {"measurement": "pest or weed control at 30 g/ha", "setting": "[4]; post-emergence, post-emergence", "value": 100, "unit": "%"}, {"measurement": "pest or weed control at 250 g/ha", "setting": "[4]; post-emergence, post-emergence", "value": 100, "unit": "%"}, {"measurement": "pest or weed control at 30 g/ha", "setting": "[4]; pre-emergence, pre-emergence", "value": 80, "unit": "%"}, {"measurement": "pest or weed control at 250 g/ha", "setting": "[4]; pre-emergence, pre-emergence", "value": 100, "unit": "%"}, {"measurement": "pest or weed control at 8 g/ha", "setting": "[5]; post-emergence, post-emergence", "value": 0, "unit": "%"}, {"measurement": "pest or weed control at 30 g/ha", "setting": "[5]; post-emergence, post-emergence", "value": 0, "unit": "%"}, {"measurement": "pest or weed control at 250 g/ha", "setting": "[5]; post-emergence, post-emergence", "value": 20, "unit": "%"}, {"measurement": "pest or weed control at 30 g/ha", "setting": "[5]; pre-emergence, pre-emergence", "value": 20, "unit": "%"}, {"measurement": "pest or weed control at 250 g/ha", "setting": "[5]; pre-emergence, pre-emergence", "value": 70, "unit": "%"}, {"measurement": "pest or weed control at 8 g/ha", "setting": "[6]; post-emergence, post-emergence", "value": 90, "unit": "%"}, {"measurement": "pest or weed control at 30 g/ha", "setting": "[6]; post-emergence, post-emergence", "value": 100, "unit": "%"}, {"measurement": "pest or weed control at 250 g/ha", "setting": "[6]; post-emergence, post-emergence", "value": 100, "unit": "%"}, {"measurement": "pest or weed control at 30 g/ha", "setting": "[6]; pre-emergence, pre-emergence", "value": 80, "unit": "%"}, {"measurement": "pest or weed control at 250 g/ha", "setting": "[6]; pre-emergence, pre-emergence", "value": 100, "unit": "%"}, {"measurement": "pest or weed control at 8 g/ha", "setting": "[7]; post-emergence", "value": 70, "unit": "%"}, {"measurement": "pest or weed control at 30 g/ha", "setting": "[7]; post-emergence", "value": 90, "unit": "%"}, {"measurement": "pest or weed control at 250 g/ha", "setting": "[7]; post-emergence", "value": 90, "unit": "%"}, {"measurement": "pest or weed control at 30 g/ha", "setting": "[7]; pre-emergence", "value": 70, "unit": "%"}, {"measurement": "pest or weed control at 250 g/ha", "setting": "[7]; pre-emergence", "value": 100, "unit": "%"}, {"measurement": "pest or weed control at 8 g/ha", "setting": "[8]; post-emergence, post-emergence", "value": 60, "unit": "%"}, {"measurement": "pest or weed control at 30 g/ha", "setting": "[8]; post-emergence, post-emergence", "value": 80, "unit": "%"}, {"measurement": "pest or weed control at 250 g/ha", "setting": "[8]; post-emergence, post-emergence", "value": 90, "unit": "%"}, {"measurement": "pest or weed control at 30 g/ha", "setting": "[8]; pre-emergence, pre-emergence", "value": 60, "unit": "%"}, {"measurement": "pest or weed control at 250 g/ha", "setting": "[8]; pre-emergence, pre-emergence", "value": 80, "unit": "%"}]}]}
